In US20080311613A1, “ARTIFICIAL SKIN SURFACE FILM LIQUIDS” (The Government of the U.S.A. as represented by the …, priority 2007, published 2008):
In brackets after ≈: the same amount, converted by molar mass. Read-outs that look alike come from different tables or passages of the source. One block for each compound: values may come before it.

Legend:
[1] = Dissolution of vitamin constituents during preparation of artificial sweat; settings: for dissolution on addition to the artificial sweat solution: before pH adjustment (pH 3.8 as prepared), 36° C.
Description: (§1) This large initial volume was useful in promoting dissolution of the constituents of the artificial sweat. […] Next, the desired masses of electrolytes and other ionic constituents (see Table 2) were added to the flask. Upon addition of the electrolytes and ionic constituents, the concentrations of chloride, calcium, and iron were measured to assess whether they matched predictions from weighing: 1.67×10^−2 M chloride, 6.93×10^−3 M calcium, and 0.54 ppm iron. Next, organic acids and carbohydrates were added to the solution (see Table 2) and the stability of chloride, calcium, and iron concentrations verified. Amino acids were added (see Table 2) then calcium and iron concentrations verified; chloride ion concentration was measured to determine if it matched the predicted value (1.7×10^−2 M) from weighing electrolytes, ionic constituents, and hydrogen chloride salts of some amino acids. Nitrogenous substances were added (see Table 2) and chloride, calcium, and iron concentrations re-verified.
(§2) Vitamin constituents were added to the solution last (see Table 2).
(§3) The pH of the artificial sweat solution was raised from 3.8 (as prepared) to a final pH of 5.3 by adding 5 M sodium hydroxide dropwise while monitoring using a calibrated pH electrode (InLab 413, Mettler-Toledo, Schwerzenbach, Switzerland) connected to a multi-meter (Seven Multi, Mettler-Toledo). […] The final volume of the solution was then brought up to 1.0 L using 18 megohm-cm distilled and deionized water and the final pH verified. To minimize opportunity for microbial growth, the final sweat solution was filtered through a 0.2 μm pore size filter (Cat. No. SCGVU11RE, Millipore Corp., Billerica, Mass.).

[2] = water, cited from earlier work
[3] = physchem; settings: artificial sweat, 36 °C
Description: as §1, §2, §3

[4] = Long-term stability of artificial sebum by thin-layer chromatography; type: physicochemical; settings: dry at 32° C., absence of vitamin E
Description: Lipids and formulation of synthetic sebum. Cholesteryl oleate, oleoyl oleate, palmityl palmitate, cholesterol and vitamin E ((±)-α-tocopherol) were purchased from Sigma-Aldrich (St. Louis, Mo.). Squalene and stearic acid were from Acros Organics (Geel, Belgium). Triolein and tristearin were purchased from MP Biochemicals (Solon, Ohio), and oleic acid was from Fisher Scientific (Fairlawn, N.J.). […] All nine lipids were dissolved in a 2:1 co-solvent mixture of chloroform and methanol and divided into two portions, one of which received vitamin E at 0.1% by weight to mimic human sebum content. After combining and mixing, portions of lipid solution were transferred to 16×125 mm glass tubes equipped with Teflon-lined screw caps. One set of tubes with lipid solution was maintained at 4° C. to characterize storage using refrigeration. […]
Thin-layer chromatography. All samples were analyzed using thin layer chromatography. Glass plates (20×20 cm) coated with 0.25-mm-thick silica gel G (Adsorbosil-plus-1; Alltech Associates; Deerfield Ill.) were washed with chloroform:methanol, 2:1, activated in a 110° C. oven, and the adsorbent was scored into 6-mm-wide lanes. […] After two hrs, charring was complete, and the chromatograms were quantitated by photodensitometry. […]

Structure (SMILES): Cc1cc2nc3c(=O)[nH]c(=O)nc-3n(C[C@H](O)[C@H](O)[C@H](O)COP(=O)(O)O)c2cc1C [riboflavin 5′-(dihydrogen phosphate), reference compound]
solubility ([2]; pH=5.6): 68 mg/mL

Structure (SMILES): CC(C)=CCC/C(C)=C/CC/C(C)=C/CC/C=C(\C)CC/C=C(\C)CCC=C(C)C [squalene]
day by which completely oxidized [4]: ≤ 21 days

Further lines, with some results ahead:

dissolution on addition to the artificial sweat solution [1]: did not dissolve completely
Structure (SMILES): O=C(O)c1cccnc1 [nicotinic acids, Nicotinic Acid (C6H5NO2)]

dissolution on addition to the artificial sweat solution [1]: did not dissolve completely
Structure (SMILES): CC(C)(CO)[C@@H](O)C(=O)NCCC(=O)O [pantothenic, D-Pantothenic Acid (C9H17NO5)]

solubility [3]: ≥ 2000 µM
concentration in artificial sweat relative to that predicted by solubility in water ([1]; artificial sweat vs water): two orders of magnitude greater
Structure (SMILES): Cc1cc2nc3c(=O)[nH]c(=O)nc-3n(C[C@H](O)[C@H](O)[C@H](O)CO)c2cc1C [riboflavin, Riboflavin (C17H20N4O6)]
solubility [2]: 0.3 mg/mL (≈ 797 µM)
